In patent US9512425B2, “Inhibiting migration of cancer cells” (Cornell University, priority 2012, dated 2016):

Experiments:
MDA-MB-436 cells = assay: Wound healing migration with BAPTA-AM, MDA-MB-436 cells; assay type: cell-based, human; settings: MDA-MB-436 cells expressing miR-708, BAPTA-AM 20 μM, 48 hours
Experimental: (§1) Cells were plated in triplicate into 6-well plates (5×10^5 cell/well) and cultured in DMEM containing 10% FBS. A scratch wounded was generated using sterile plastic 200 μl pipette tip, and floating debris removed by washing with PBS. Cell migration was photographed and measured under phase-contrast microscopy. To measure cell migration after depletion of intracellular calcium, a scratch was made and the wound healing was monitored for 48 hr in the presence of 20 μM of BAPTA-AM (Invitrogen). The percentage of wound healed area was measured as a ratio of occupied area to the total area using Image J program (NIH).

MDA cells = assay: Wound healing / transwell migration with BAPTA-AM, MDA cells; assay type: cell-based, human; settings: 20 μM BAPTA-AM
Experimental: as §1

Q: With `CC(=O)OCOC(=O)CN(CC(=O)OCOC(C)=O)c1ccccc1OCCOc1ccccc1N(CC(=O)OCOC(C)=O)CC(=O)OCOC(C)=O` [BAPTA-AM] as the compound, how does the cell migration (MDA-MB-436 cells) read?
A: rescued the migration defects

Q: What about the cell migration (MDA cells; MDA control cells) of the same compound?
A: dramatic impairment

Q: And the cell migration (MDA cells; MDA-miR708 cells)?
A: remained less affected
